Where two headings read alike, the source gives them in different places.

These results are taken from patent publication US12318399B2 (priority 2022, dated 2025).

The conditions of data set [1]: cited from earlier work.
The subject of data set [2] is chemoresistant EC, which had metastasized. Put plainly: Testing within human patients. The format is in vivo.
A further data set relates to ovarian cancer organoids. Nature of the data set: Patient-derived ovarian cancer organoid cell viability. The format is cell-based, human. To be noted: for cell viability: chemo sensitive and chemo resistant organoids, FIGS. 11A-11D; for Ovarian Cancer Average: vehicle = 100. The method, then: (§1) Development of patient derived organoids: The patient derived organoids were created as follows: the patient's tissue sample was collected after surgery and bathed in Hank's Balanced Salt Solution (HBSS) (Hyclone, SH30031.02) with 1% Pencillin/Streptomycin (P/S) (Life Technologies, 15070-063) on ice. Then the sample was washed three times with Dulbecco's phosphate-buffered saline (DPBS) and 1% P/S on a shaker (70 rpm) for 15 minutes each. The tissue was then transferred into a presterilized cell-culture hood to mince it finely with a sterile blade. All minced parts were then digested in an enzyme named Accumax (Innovative Cell Technologies Inc., AM105-500) for 2.5 hours at room temperature. After 2.5-hour incubation, the whole digested tissue mince was transferred in another enzyme, TrypLE express, (Gibco, 12604-021) for another 45 minutes in a 37° C. water bath. During this time the solution was continuously agitated in every 5 minutes interval. After 45 minutes of incubation, the solutions were passed through 70 μm filter on a 50 mL falcon tube. The filter was removed, and the flowthrough with the cells was collected in 5% FBS AD+++ medium (comprising 1% TS, 2% B27, 1% N2, 25% WRN, hegf 50 ng/ml, hfgf 10-100 ng/ml, Nicotinamide 1 mM, N-acetyl cysteine 1.25 mM, Primocin 0.2%, Estrogen 2 nm, A8301 0.5 μM, and Y27632). This cell suspension was centrifuged at 1000 rpm for 5 minutes at room temperature to get the cell pellet for counting. Upon checking under hemocytometer cell number was calculated and processed for organoid culture. After checking under a microscope if we found RBC contamination in the final cell suspension, then we used Red Blood Cell Lysis Buffer (Roche Diagnostics, 11814389001) to get rid of the excess RBC. Human patient cells from endometrial cancer were grown and maintained in a humidified chamber at 37° C. with 5% CO2.
For the Ascites samples, we centrifuged the ascites fluid at 1000 rpm for 10 minutes at room temperature to get the cell suspension. The cell suspension was then treated with Red Blood Cell Lysis Buffer (Roche Diagnostics, 11814389001) to remove the RBC from the final cell suspension. Once samples were created, they were ready for testing, which included treating the organoids with cannabis extract. Additional cells were cultured in the same manner as above.
(§2) To culture patient-derived organoids, 2-3×10^3 cells were plated in a prewarmed (37° C.) 96-well plate in […] of Matrigel (5% FBS AD+++ medium) per well. Individual patient cell organoid was cultured separately in different plates. Individual patient cells were handled separately to reduce the chance of cross-contamination. After mixing cells with Matrigel, […] droplets were placed in wells and put in a 37° C. incubator with 5% CO2 for 30 minutes. Upon solidification of the Matrigel droplet with cells inside, the plate was placed inside a sterile hood and immersed the Matrigel droplet in 200 μL of organoid growth media. Cells were allowed to grow into mature organoids for 14 days. […] All treatments were done in triplicate, including vehicle-only controls (Dimethyl sulfoxide in culture medium at the highest concentration used for drug treatments).
(§3) Note: IC50 is the 50% inhibitory concentration which is conventionally used to determine drug potency with cell-based cytotoxicity tests. Similarly, all of the antioxidants were tested under the same protocol.
To assess the cell viability in organoids after treatments, CellTiter-Glo® Luminescent Assay (Promega #G7572) was used. In brief, on day 14 of organoid culture, the matrigel droplet in each well with organoid inside was immersed in 100 μL of fresh growth media and 100 μL of CellTiter-Glo® reagent following the manufacturer's guideline. Blank wells containing only media and CellTiter-Glo® reagent (no cells) were also included in each plate. […]

Data set [3] has as its system endometrial cancer organoids. Put plainly: Patient-derived endometrial cancer organoid cell viability (CellTiter-Glo). Format: cell-based, human. As to conditions: for Endometrial Cancer Average: vehicle = 100. How it is done:
as §1, §2, §3
(§4) To assess the cell viability in organoids after treatments, CellTiter-Glo® Luminescent Assay (Promega #G7572) was used. In brief, on day 14 of organoid culture, the matrigel droplet in each well with organoid inside was immersed in 100 μL of fresh growth media and 100 μL of CellTiter-Glo® reagent following the manufacturer's guideline. Blank wells containing only media and CellTiter-Glo® reagent (no cells) were also included in each plate. Then the plates were put on a shaker at 110 RPM at room temperature for […] minutes to induce cell lysis, followed by 25 minutes at room temperature to stabilize the luminescent signal. Each step after adding the CellTiter-Glo® reagent was performed in the dark. Luminescence was measured on a FLUOstar OPTIMA plate reader (BMG Lab technologies, Offenburg, Germany). Analysis was performed by normalizing treatment values to the vehicle control and plotting them as a percentage of the vehicle control.
Background: ATP-based viability assays read luminescence as a measure of living cells.

Data set [4] relates to patient derived endometrial cancer cells. Put plainly: Patient-derived xenograft (PDX) mouse model, tumor volume. The format is in vivo. To be noted: monotherapy 30 mg/kg intraperitoneal, by day 14 and at day 21. The method, then:
Human patient cells from endometrial cancer were injected subcutaneously into female NOD/SCID gamma mice after resuspending in 100 μL solution. […] Tumor size measured before treatment, followed by twice a week measurement. All treatment group mice were kept alive for up to 10 weeks after drug injection or until the tumor volume grows bigger than 2,500 mm^3.
Tumor size was measured along with body weight at the time of tissue collection. All tumor tissues were removed carefully from the euthanized mouse body. Tumor tissue samples were kept for histology, proteomics, genomics, and other downstream processing. All downstream processing was completed following NCI Patient-Derived Models Repository SOPs. Tumor volume graph will be plotted using GraphPad Prism 9.
The mouse studies utilized intraperitoneal dosing of various formulations of cannabis extracts comprising a known quantity of CBD.
In general terms: Xenograft models place foreign cells or tissue in a host animal.

The next data set deals with endometriosis organoids. Nature of the data set: Endometriosis organoid cell viability. The format is cell-based, human. Set-up: key: % of vehicle control. To be noted: vehicle = 100. How it is done: as §2, §3
as §4, with “control. Drug IC50 values were determined by inhibitor vs normalized response-variable slope using least squares regression in Graphpad Prism 9.” for “control.”

On to `C=C(C)[C@@H]1CCC(C)=C[C@H]1c1c(O)cc(CCCCC)cc1O` [CBD, cannabidiol], for which the “increase of Cmax” value in data set [1] (coadministration with high fat food) is “up to 5 fold”. Further, the Tmax result in data set [1] (delivery via the nasal mucosa) is “approximately 10 minutes”. In addition, the “maximum plasma concentration (time)” value in data set [1] (oral-mucosal or sublingual delivery) is 1.6 h; in data set [1] (orally delivered), 2.5 to 5 h. In addition, the “efficacy in human patients” value in data set [2] is “effective in reducing chemoresistant EC”.
Turning to `C=C(C)[C@@H]1CCC(C)=C[C@H]1c1c(O)cc(CCCCC)cc1O` [CBD isolate, cannabidiol], the cell viability entry in the data set with ovarian cancer organoids was “dramatically reduce cell viability”. Moreover, the “efficacy at killing the organoids compared with native pH” value in the data set with ovarian cancer organoids (pH 8) is “virtually no change”. Also, the “response of patient derived organoids” value in data set [3] (7 or 10 μg/mL, FIGS. 4B and 4C) is “virtually all patients respond”. Moreover, the eradication in data set [3] (IC50 of cannabis extract combined with the higher doses of carboplatin) is roughly 100%. In addition, the tumor volumes result in data set [4] is reported as “decreased”.
For `O=c1c(O)c(-c2cc(O)c(O)c(O)c2)oc2cc(O)cc(O)c12` [myricetin], the “Ovarian Cancer Average” value in the data set on ovarian cancer organoids (25 μM) amounted to 88.60; in the data set on ovarian cancer organoids (50 μM) it was 84.68; in the data set on ovarian cancer organoids (75 μM), 78.36; with ovarian cancer organoids (100 μM) it was 38.95; in the data set on ovarian cancer organoids (125 μM) it was 13.49; with ovarian cancer organoids (150 μM), 2.97. Besides, the “Ovarian Cancer Average” value in the data set on ovarian cancer organoids (175 μM) and in the data set on ovarian cancer organoids (200 μM) was 0.00 in each case. Also, in data set [3] (10 μM, with IC50 of BSHE), the “reduction from its monotherapy” value is on record as roughly 86%. For the same molecule, the “Endometrial Cancer Average” value in data set [3] (Table 4, 10 μM) was 85.01; in data set [3] (Table 4, 25 μM), 54.50; in data set [3] (Table 4, 50 μM) it was 15.11; in data set [3] (Table 4, 75 μM), 4.98; in data set [3] (Table 4, 100 μM), 0.00; in data set [3] (Table 4, 125 μM), 0.00. Besides, the “Endometrial Cancer Average” value in data set [3] (Table 4, 150 μM) came out at 0.00; in data set [3] (Table 4, 175 μM) it was 0.00; in data set [3] (Table 4, 200 μM), 0.00. For the same molecule, the “cell viability as a monotherapy” value in data set [3] (monotherapy, FIG. 16) was “significantly reduced cell viability”. Also, the “Endometriosis Average” value in the data set with endometriosis organoids (25 μM) came out at 92.10; in the data set with endometriosis organoids (50 μM), 91.37; with endometriosis organoids (75 μM), 73.66; with endometriosis organoids (100 μM), 18.33; in the data set with endometriosis organoids (125 μM) it was 2.85; in the data set on endometriosis organoids (150 μM), 0.00. Moreover, the “Endometriosis Average” value in the data set on endometriosis organoids (175 μM) and in the data set with endometriosis organoids (200 μM) was 0.00 throughout.
With `C=C(C)[C@@H]1CCC(C)=C[C@H]1c1c(O)cc(CCCCC)c(C(=O)O)c1O` [CBDA, cannabidiolic acid], the cell viability entry in the data set with ovarian cancer organoids is listed as “dramatically reduce cell viability”. For the same molecule, in data set [3] (dosing up to 50 μg/mL), the “reduction in organoid formation in all patients” value was roughly 100%. Besides, the tumor volumes entry in data set [4] was “decreased”.
Consider `CCCCCc1cc(O)c2c(c1)OC(C)(C)[C@@H]1CCC(C)=C[C@@H]21` [THC, Δ-9-tetrahydrocannabinol], for which the “onset to reach peak concentration” value in data set [1] (oral formulations) is roughly 120 min.
